The values that follow come from publication PMC8565742 (PLoS Neglected Tropical Diseases, 2021).

In assay [1] the target is T1, Sm.TRPMPZQ (Schistosoma mansoni, UniProt A0A5K4F0X5). Briefly: cell-based. As to conditions: for Emax: HEK293. As to the method:
HEK cells were transfected with cDNA (400μg/ml DNA) encoding Sm.TRPMPZQ using a Maxcyte STX electroporation system and incubated overnight at 37°C. This system is uniquely capabable of large scale transfections providing one batch of cells ready for large scale HTS [30]. Briefly, the HEK cells were resuspended at 10^8/ml in Maxcyte electroporation buffer. Plasmid DNA was added to the cells in buffer to achieve a concentration of 400 μg/ml from a stock of 5mg/ml (in TE buffer). This mixture was loaded into the appropriate cassette, inserted into the machine, and cells electroporated. Cells were then frozen to provide a single supply of transfected cells for all subsequent assays. On the day of the assays, cells were thawed in a 37°C waterbath, and resuspended in DMEM + 10% FBS and counted. The cells were pelleted by centrifugation at 170xg for 5 minutes. The media was aspirated, and the remaining pellet was resuspended in 1x HBSS with 20 mM HEPES and 1% DMSO to achieve 1.33x10^6cells/ml. […] A read of basal fluorescence values was made (5s) prior to addition of compounds or controls (30 nl). In both ‘agonist’ and ‘antagonist mode’, the total assay volume was 6μl (1% DMSO). […] Ligand performance was categorized using an algorithm based on the activity of the entire dataset to define a ‘hit-cutoff’ parameter for both agonist-mode and antagonist-mode screening. […] Titration assays were executed using the same reagents, protocols and detection systems, done as 10-point concentration-response curves, performed in triplicate. Counter-screening was performed using untransfected HEK293 cells for comparison with results testing the same compounds effect on cells expressing Sm.TRPMPZQ, with ATP used as the positive control. For each compound, activity was plotted against compound concentration and data were fitted with a sigmoidal function.

In assay [2] the test system is untransfected HEK293 cells. Description: Counterscreen, antagonist mode, Ca2+ signal in untransfected HEK cells. In kind it is cell-based. Conditions: counterscreen titration; for EC50: Homo sapiens, HEK293, unit inferred, read-out: HEK ANT Final EC50. Here is the method:
HEK cells were transfected with cDNA (400μg/ml DNA) encoding Sm.TRPMPZQ using a Maxcyte STX electroporation system and incubated overnight at 37°C. This system is uniquely capabable of large scale transfections providing one batch of cells ready for large scale HTS [30]. Briefly, the HEK cells were resuspended at 10^8/ml in Maxcyte electroporation buffer. Plasmid DNA was added to the cells in buffer to achieve a concentration of 400 μg/ml from a stock of 5mg/ml (in TE buffer). This mixture was loaded into the appropriate cassette, inserted into the machine, and cells electroporated. Cells were then frozen to provide a single supply of transfected cells for all subsequent assays. On the day of the assays, cells were thawed in a 37°C waterbath, and resuspended in DMEM + 10% FBS and counted. The cells were pelleted by centrifugation at 170xg for 5 minutes. The media was aspirated, and the remaining pellet was resuspended in 1x HBSS with 20 mM HEPES and 1% DMSO to achieve 1.33x10^6cells/ml. This cell suspension was then dispensed at 3 μl/well to the 1536 well plates (Greiner Bio One part 789072) at a density of 4,000 cells/well. Measurements of fluorescence intensity (λex = 470 nm, λem = 535 nm) were made using a FLIPR (Molecular Devices FLIPR Tetra). A read of basal fluorescence values was made (5s) prior to addition of compounds or controls (30 nl). In both ‘agonist’ and ‘antagonist mode’, the total assay volume was 6μl (1% DMSO). […] Ligand performance was categorized using an algorithm based on the activity of the entire dataset to define a ‘hit-cutoff’ parameter for both agonist-mode and antagonist-mode screening. Any compound with greater percent activation than this cutoff was assigned as ‘active’ prior to titration and counter-screening. Titration assays were executed using the same reagents, protocols and detection systems, done as 10-point concentration-response curves, performed in triplicate. Counter-screening was performed using untransfected HEK293 cells for comparison with results testing the same compounds effect on cells expressing Sm.TRPMPZQ, with ATP used as the positive control. For each compound, activity was plotted against compound concentration and data were fitted with a sigmoidal function. In order to be considered a hit at this stage a compound must achieve a EC50<5 μM for agonists and IC50 <5 μM for antagonists. All compounds selected for titration were subjected to LC-MS analysis to confirm mass and sample purity. ChemAxon (https://www.chemaxon.com) academic licensing was provided for the use of Instant JChem (ver. 15.10.12.0) to perform compound mining of the libraries utilized in this effort.
In general terms: A counterscreen serves to expose hits that act by an unwanted route or on another target.

Assay [3] has as its target T1, Sm.TRPMPZQ. Description: Single channel recording, inside-out patch, HEK293 stably expressing Sm.TRPMPZQ. In kind it is biochemical. As to conditions: for mean slope single-channel conductance: agonist 10 μM, Ca2+-free, inside-out, mean ± SD. Here is the method: For electrophysiological analysis, a HEK293 cell line stably expressing Sm.TRPMPZQ [7] was generated using the Flp-In T-REx system (K650001, Thermofisher Scientific, Carlsbad, CA). Flp-In T-REx HEK293 cells were cultured in Dulbecco’s modified Eagle’s medium supplemented with 10% fetal bovine serum, penicillin (100 units/ml), streptomycin (100 μg/ml), L-glutamine (290 μg/ml), blasticidin (10 μg/ml), and hydromycin B (100 μg/ml). HEK293 cells were plated onto glass coverslips and Sm.TRPMPZQ expression induced by addition of tetracycline (2 μg/ml) to the media 24–48 hours before recording. Prior to recording, coverslips were secured within a recording chamber of an Olympus BX51WI upright microscope. Cells were bathed in a solution containing 145 mM KCl, 10 mM HEPES, 1 mM EGTA (pH 7.2, 310–315 mOsm/kg with sucrose). The pipette solution contained 140 mM LiCl, 10 mM HEPES, 1 mM EGTA (pH 7.4, 280–285 mOsm/kg with sucrose). Patch pipettes were made of borosilicate glass (BF150-110-10, Sutter Instrument, Novato, CA) pulled on a vertical puller (Narishige, Amityville, NY, Model PC-10) with resistances 8–10 MΩ. […] Signals were filtered with an 8-pole Bessel low pass filter at 1 kHz, and sampled at 20 kHz. Open probability (Popen) was assessed in single channel search mode using Clampfit 10 software. All recordings were done at room temperature. Data represent mean±standard error for ≥3 independent experiments.

As usually defined, the EC50 is the midpoint of the concentration-response curve. Usually IC50 stands for the concentration at which inhibition is half-maximal.

Read-outs that look alike come from different tables or passages of the source.

T1 sequence (A0A5K4F0X5 entry or part of it): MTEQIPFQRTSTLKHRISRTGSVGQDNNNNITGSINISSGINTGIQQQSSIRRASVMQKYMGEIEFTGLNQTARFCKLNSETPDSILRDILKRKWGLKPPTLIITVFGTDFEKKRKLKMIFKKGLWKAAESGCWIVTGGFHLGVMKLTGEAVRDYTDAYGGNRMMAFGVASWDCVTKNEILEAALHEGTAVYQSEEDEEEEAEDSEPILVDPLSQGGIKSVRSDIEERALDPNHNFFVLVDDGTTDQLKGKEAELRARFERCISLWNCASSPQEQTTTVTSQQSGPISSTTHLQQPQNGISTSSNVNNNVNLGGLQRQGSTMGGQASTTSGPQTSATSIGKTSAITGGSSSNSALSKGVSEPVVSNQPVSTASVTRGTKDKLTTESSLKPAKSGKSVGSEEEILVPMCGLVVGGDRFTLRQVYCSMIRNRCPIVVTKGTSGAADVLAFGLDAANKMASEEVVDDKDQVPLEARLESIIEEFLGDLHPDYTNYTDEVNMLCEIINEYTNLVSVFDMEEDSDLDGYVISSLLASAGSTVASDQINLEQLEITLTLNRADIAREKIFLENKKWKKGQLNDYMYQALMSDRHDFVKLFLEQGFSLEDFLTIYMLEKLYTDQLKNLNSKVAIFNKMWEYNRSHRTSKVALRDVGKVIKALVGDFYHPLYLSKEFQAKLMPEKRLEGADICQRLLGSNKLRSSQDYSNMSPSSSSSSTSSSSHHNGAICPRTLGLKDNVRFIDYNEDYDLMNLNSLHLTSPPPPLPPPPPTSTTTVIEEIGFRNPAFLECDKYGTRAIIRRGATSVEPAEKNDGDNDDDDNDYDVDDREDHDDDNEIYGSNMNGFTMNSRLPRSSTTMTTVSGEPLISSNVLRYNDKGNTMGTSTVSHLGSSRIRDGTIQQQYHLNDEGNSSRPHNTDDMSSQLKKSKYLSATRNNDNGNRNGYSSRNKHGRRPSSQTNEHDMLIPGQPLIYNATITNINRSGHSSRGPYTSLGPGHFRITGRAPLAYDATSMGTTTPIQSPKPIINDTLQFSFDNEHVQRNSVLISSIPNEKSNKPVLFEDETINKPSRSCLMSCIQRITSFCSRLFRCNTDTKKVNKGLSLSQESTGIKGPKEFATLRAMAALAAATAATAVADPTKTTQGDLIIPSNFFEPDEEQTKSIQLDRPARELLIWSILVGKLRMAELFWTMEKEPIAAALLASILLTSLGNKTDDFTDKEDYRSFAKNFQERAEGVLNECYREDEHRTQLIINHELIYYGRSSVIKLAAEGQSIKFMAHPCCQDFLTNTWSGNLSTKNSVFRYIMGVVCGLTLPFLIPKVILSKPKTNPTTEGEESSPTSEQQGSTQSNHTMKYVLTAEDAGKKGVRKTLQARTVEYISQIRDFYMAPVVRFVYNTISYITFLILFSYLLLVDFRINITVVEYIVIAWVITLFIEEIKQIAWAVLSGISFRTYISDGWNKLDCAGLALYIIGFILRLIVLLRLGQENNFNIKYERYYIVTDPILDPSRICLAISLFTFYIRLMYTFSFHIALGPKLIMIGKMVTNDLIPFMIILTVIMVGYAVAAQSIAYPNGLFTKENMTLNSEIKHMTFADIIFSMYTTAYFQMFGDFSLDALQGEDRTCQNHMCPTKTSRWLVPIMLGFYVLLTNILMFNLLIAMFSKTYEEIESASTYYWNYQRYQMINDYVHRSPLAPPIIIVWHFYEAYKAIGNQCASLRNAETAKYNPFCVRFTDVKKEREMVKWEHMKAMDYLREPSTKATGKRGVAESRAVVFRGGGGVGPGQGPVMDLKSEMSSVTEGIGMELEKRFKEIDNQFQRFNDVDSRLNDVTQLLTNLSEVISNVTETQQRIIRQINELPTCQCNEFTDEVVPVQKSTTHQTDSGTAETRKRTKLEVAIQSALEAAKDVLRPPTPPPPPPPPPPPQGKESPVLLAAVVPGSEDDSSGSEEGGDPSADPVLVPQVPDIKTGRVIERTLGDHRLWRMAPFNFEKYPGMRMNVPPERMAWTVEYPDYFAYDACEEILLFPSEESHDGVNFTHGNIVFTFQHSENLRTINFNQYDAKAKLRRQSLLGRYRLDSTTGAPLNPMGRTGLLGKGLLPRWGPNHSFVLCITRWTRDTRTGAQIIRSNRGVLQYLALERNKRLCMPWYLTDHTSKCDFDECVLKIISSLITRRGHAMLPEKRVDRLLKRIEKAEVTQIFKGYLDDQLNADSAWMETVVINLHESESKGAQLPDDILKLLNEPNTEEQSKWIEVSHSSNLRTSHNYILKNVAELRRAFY

For the molecule `COc1ccc(-c2nnc3ccc(-c4cccc(C(C)C)c4)cn23)cc1OC` [AG1, 3-(3,4-Dimethoxyphenyl)-6-(3-propan-2-ylphenyl)-[1,2,4]triazolo[4,3-a]pyridine], in assay [1] (S2 Table, antagonist mode titration, read-out: Sm.TRPMPZQ Averaged Max % Response), the Emax came out at 109%. In addition, the concentration for a half-maximal effect (EC50) in assay [1] (S2 Table, 10-point titration in triplicate, unit inferred, read-out: Sm.TRPMPZQ ANT Final EC50) was determined as 0.571 µM. The “Sm.TRPMPZQ ANT Hill Slope” value in assay [1] (S2 Table, titration) is on record as 2.322. Besides, in assay [2] (S2 Table), the EC50 worked out at 10.3 µM and the “HEK ANT Averaged Max % Response” value stood at 64.2957%. The “mean slope single-channel conductance” value in assay [3] was determined as 61 ± 4 pS.

With `Cc1onc(-c2ccccc2)c1C(=O)N1CCN(C2c3ccccc3-c3ccccc32)CC1` [ANT1, 1-(9H-fluoren-9-yl)-4-(5-methyl-3-phenyl-1,2-oxazole-4-carbonyl)piperazine], in assay [1] (S3 Table, titration, read-out: Sm.TRPMPZQ ANT Averaged Max % Response), the Emax was determined as 105%. In addition, the half-inhibitory concentration (IC50) in assay [1] (read-out: IC50, block of PZQ-evoked Ca2+ signals) turned out to be 1.3 ± 0.3 µM. Also, in assay [2] (S3 Table), the EC50 is above 12.4 µM and the “HEK ANT Averaged Max % Response” value stood at 43.1011%. The “effect on single channel open probability (Popen)” value in assay [3] (50 μM, channels activated by PZQ or AG1 (10 μM)) is given as “decreased Popen”.

With `O=C(C1CCCCC1)N1CC(=O)N2CCc3ccccc3C2C1` (stereo not shown) [PZQ, praziquantel, reference compound], the “Sm.TRPMPZQ ANT Hill Slope” value in assay [1] (S2 Table, titration, listed as SR-01000003100-3) is reported as 1.74. In assay [2] (S2 Table), the EC50 was above 12.4 µM. Besides, the “HEK ANT Averaged Max % Response” value is listed as 20.9575% in assay [2] (S2 Table, listed as SR-01000003100-3) and 9.578% in assay [2] (S2 Table, listed as SR-01000003100-19). The “mean slope single-channel conductance” value in assay [3] was determined as 76 ± 8 pS.
